Like-named read-outs stand apart in the source and are kept apart here. Bridge positions count the residues as written; N and C are the ends. Ends that are not written are not given here. Peptide text beside a SMILES is read from it. I, II: the chains in the order shown.
How the values were obtained:
SARS-CoV-2 PLpro [1] = molecular target: T1, SARS-CoV-2 PLpro (Severe acute respiratory syndrome coronavirus 2, UniProt P0DTD1); test: SARS-CoV-2 PLpro FRET enzyme inhibition assay; type: biochemical; conditions: for inhibition at 10 µM: 10 µM peptide, 27 µM substrate, 37 °C
SARS-CoV-2 PLpro [2] = molecular target: T1, SARS-CoV-2 PLpro; test: Microscale thermophoresis (MST) binding assay; conditions: 100 nM labelled PLpro, peptides 0.015 to 500 µM, 50 mM HEPES pH 7.5, 100 mM NaCl, 2 mM DTT, DMSO 5%; triplicate, Hill fit
SARS-CoV-2 = conditions: for SARS-CoV-2 % of inhibition at 100 µM: 24 h
[3] = calculated from IC50 values, Figure 3A, read-out: pIC50 (−logIC50), PLpro (converted)
[4] = 70 nM enzyme, 27 µM FRET substrate, 50 mM HEPES pH 7.5, 0.01% Triton X-100, 5 mM DTT, 30 min pre-incubation at 37 °C, Hill fit, two independent experiments, read-out: IC50 against PLpro

Compound: CC(C)C[C@H](NC(=O)[C@H](Cc1c[nH]cn1)NC(=O)[C@H](Cc1ccc(O)cc1)NC(=O)[C@H](CCCNC(=N)N)NC(=O)[C@H](Cc1ccc(O)cc1)NC(=O)[C@H](CCCCN)NC(=O)[C@@H](N)CCCCN)C(=O)N[C@@H](CCCCN)C(=O)N1CCC[C@H]1C(=O)N[C@@H](Cc1ccccc1)C(=O)NCCCC[C@H](NC(=O)[C@H](Cc1ccccc1)NC(=O)[C@@H]1CCCN1C(=O)[C@H](CCCCN)NC(=O)[C@H](CC(C)C)NC(=O)[C@H](Cc1c[nH]cn1)NC(=O)[C@H](Cc1ccc(O)cc1)NC(=O)[C@H](CCCNC(=N)N)NC(=O)[C@H](Cc1ccc(O)cc1)NC(=O)[C@H](CCCCN)NC(=O)[C@@H](N)CCCCN)C(N)=O [(pBthTX-I)2K, des-Cys^11,Lys^12,Lys^13-(pBthTX-I)2K] (I: H-KKYRYHLKPFK-NH2 / II: H-KKYRYHLKPF; amide I:11-II:C)
- inhibition at 10 µM (SARS-CoV-2 PLpro [1]; 70 nM enzyme): 98%
- IC50 (SARS-CoV-2 PLpro [1]; [3]): 2400 nM
- Kd (SARS-CoV-2 PLpro [2]): 900 ± 100 nM

Compound: Cc1c(-c2ccc(-c3ccccc3F)cc2)nc2ccc(F)cc2c1C(=O)O [BREQ, brequinar, reference compound]
- SI = selectivity index (CC50/EC50) (SARS-CoV-2; CC50/EC50 in Vero cells): >25

Compound: CC(C)C[C@H](NC(=O)[C@H](Cc1c[nH]cn1)NC(=O)[C@H](Cc1ccc(O)cc1)NC(=O)[C@H](C)NC(=O)[C@H](Cc1ccc(O)cc1)NC(=O)[C@H](CCCCN)NC(=O)[C@@H](N)CCCCN)C(=O)N[C@@H](CCCCN)C(=O)N1CCC[C@H]1C(=O)N[C@@H](Cc1ccccc1)C(=O)NCCCC[C@H](NC(=O)[C@H](Cc1ccccc1)NC(=O)[C@@H]1CCCN1C(=O)[C@H](CCCCN)NC(=O)[C@H](CC(C)C)NC(=O)[C@H](Cc1c[nH]cn1)NC(=O)[C@H](Cc1ccc(O)cc1)NC(=O)[C@H](C)NC(=O)[C@H](Cc1ccc(O)cc1)NC(=O)[C@H](CCCCN)NC(=O)[C@@H](N)CCCCN)C(N)=O [A4] (I: H-KKYAYHLKPFK-NH2 / II: H-KKYAYHLKPF; amide I:11-II:C)
- IC50 (SARS-CoV-2 PLpro [1]; [4]): 2000 ± 30 nM
- inhibition at 10 µM (SARS-CoV-2 PLpro [1]; 70 nM enzyme): 97%
- SARS-CoV-2 % of inhibition at 100 µM (SARS-CoV-2): 10%
- Kd (SARS-CoV-2 PLpro [2]): 3000 ± 1000 nM

Compound: CC(C)C[C@H](NC(=O)[C@H](Cc1c[nH]cn1)NC(=O)[C@H](Cc1ccc(O)cc1)NC(=O)[C@H](CCCNC(=N)N)NC(=O)[C@H](Cc1ccc(O)cc1)NC(=O)[C@H](C)NC(=O)[C@@H](N)CCCCN)C(=O)N[C@@H](CCCCN)C(=O)N1CCC[C@H]1C(=O)N[C@@H](Cc1ccccc1)C(=O)NCCCC[C@H](NC(=O)[C@H](Cc1ccccc1)NC(=O)[C@@H]1CCCN1C(=O)[C@H](CCCCN)NC(=O)[C@H](CC(C)C)NC(=O)[C@H](Cc1c[nH]cn1)NC(=O)[C@H](Cc1ccc(O)cc1)NC(=O)[C@H](CCCNC(=N)N)NC(=O)[C@H](Cc1ccc(O)cc1)NC(=O)[C@H](C)NC(=O)[C@@H](N)CCCCN)C(N)=O [A2] (I: H-KAYRYHLKPFK-NH2 / II: H-KAYRYHLKPF; amide I:11-II:C)
- IC50 (SARS-CoV-2 PLpro [1]; [4]): 2400 ± 30 nM
- inhibition at 10 µM (SARS-CoV-2 PLpro [1]; 70 nM enzyme): 99%
- SARS-CoV-2 % of inhibition at 100 µM (SARS-CoV-2): 10%
- Kd (SARS-CoV-2 PLpro [2]): 7000 ± 3000 nM

Compound: CC[C@H](C)[C@H](N)C(=O)N[C@@H](Cc1ccccc1)C(=O)NCC(=O)N[C@@H](C)C(=O)N[C@H](C(=O)N[C@@H](CC(C)C)C(=O)N1CCC[C@H]1C(=O)N[C@@H](CC(C)C)C(=O)N[C@@H](C)C(=O)N[C@@H](CC(C)C)C(=O)NCC(=O)N[C@@H](C)C(=O)N[C@@H](CC(C)C)C(=O)N[C@@H](CCCCN)C(=O)N[C@@H](CC(N)=O)C(=O)N[C@@H](CC(C)C)C(=O)N[C@H](C(=O)N[C@@H](CCCCN)C(N)=O)[C@@H](C)CC)[C@@H](C)CC [Hy-a1, Hylin a1, reference compound] (H-IFGAILPLALGALKNLIK-NH2; N-terminus and C-terminus assumed)
- inhibition at 10 µM (SARS-CoV-2 PLpro [1]; 70 nM enzyme): 13%
- SARS-CoV-2 % of inhibition at 100 µM (SARS-CoV-2): 59%

Compound: CC(C)C[C@H](NC(=O)[C@H](C)NC(=O)[C@H](Cc1ccc(O)cc1)NC(=O)[C@H](CCCNC(=N)N)NC(=O)[C@H](Cc1ccc(O)cc1)NC(=O)[C@H](CCCCN)NC(=O)[C@@H](N)CCCCN)C(=O)N[C@@H](CCCCN)C(=O)N1CCC[C@H]1C(=O)N[C@@H](Cc1ccccc1)C(=O)NCCCC[C@H](NC(=O)[C@H](Cc1ccccc1)NC(=O)[C@@H]1CCCN1C(=O)[C@H](CCCCN)NC(=O)[C@H](CC(C)C)NC(=O)[C@H](C)NC(=O)[C@H](Cc1ccc(O)cc1)NC(=O)[C@H](CCCNC(=N)N)NC(=O)[C@H](Cc1ccc(O)cc1)NC(=O)[C@H](CCCCN)NC(=O)[C@@H](N)CCCCN)C(N)=O [A6] (I: H-KKYRYALKPFK-NH2 / II: H-KKYRYALKPF; amide I:11-II:C)
- IC50 (SARS-CoV-2 PLpro [1]; [4]): 1800 ± 70 nM
- inhibition at 10 µM (SARS-CoV-2 PLpro [1]; 70 nM enzyme): 97%
- SARS-CoV-2 % of inhibition at 100 µM (SARS-CoV-2): 22%
- Kd (SARS-CoV-2 PLpro [2]): 5000 ± 3000 nM

Compound: CC(C)C[C@H](NC(=O)[C@H](Cc1c[nH]cn1)NC(=O)[C@H](C)NC(=O)[C@H](CCCNC(=N)N)NC(=O)[C@H](Cc1ccc(O)cc1)NC(=O)[C@H](CCCCN)NC(=O)[C@@H](N)CCCCN)C(=O)N[C@@H](CCCCN)C(=O)N1CCC[C@H]1C(=O)N[C@@H](Cc1ccccc1)C(=O)NCCCC[C@H](NC(=O)[C@H](Cc1ccccc1)NC(=O)[C@@H]1CCCN1C(=O)[C@H](CCCCN)NC(=O)[C@H](CC(C)C)NC(=O)[C@H](Cc1c[nH]cn1)NC(=O)[C@H](C)NC(=O)[C@H](CCCNC(=N)N)NC(=O)[C@H](Cc1ccc(O)cc1)NC(=O)[C@H](CCCCN)NC(=O)[C@@H](N)CCCCN)C(N)=O [A5] (I: H-KKYRAHLKPFK-NH2 / II: H-KKYRAHLKPF; amide I:11-II:C)
- IC50 (SARS-CoV-2 PLpro [1]; [4]): 1900 ± 10 nM
- inhibition at 10 µM (SARS-CoV-2 PLpro [1]; 70 nM enzyme): 95%
- Kd (SARS-CoV-2 PLpro [2]): 3000 ± 2000 nM

Compound: I: KKYRYHLKPFKK-NH2 / II: KKYRYHLKPFK / III: KKYRYHLKPF / IV: KKYRYHLKPF (amide I:11-IV:C, I:12-II:C, II:11-III:C) [A11]
- inhibition at 10 µM (SARS-CoV-2 PLpro [1]; 70 nM enzyme): 98%
- IC50 (SARS-CoV-2 PLpro [1]; [3]): 1410 nM
- SARS-CoV-2 % of inhibition at 100 µM (SARS-CoV-2): 54%
- Kd (SARS-CoV-2 PLpro [2]): 1000 ± 200 nM

Compound: CC(C)C[C@H](NC(=O)[C@H](Cc1c[nH]cn1)NC(=O)[C@H](Cc1ccc(O)cc1)NC(=O)[C@H](CCCNC(=N)N)NC(=O)[C@H](Cc1ccc(O)cc1)NC(=O)[C@H](CCCCN)NC(=O)[C@H](C)N)C(=O)N[C@@H](CCCCN)C(=O)N1CCC[C@H]1C(=O)N[C@@H](Cc1ccccc1)C(=O)NCCCC[C@H](NC(=O)[C@H](Cc1ccccc1)NC(=O)[C@@H]1CCCN1C(=O)[C@H](CCCCN)NC(=O)[C@H](CC(C)C)NC(=O)[C@H](Cc1c[nH]cn1)NC(=O)[C@H](Cc1ccc(O)cc1)NC(=O)[C@H](CCCNC(=N)N)NC(=O)[C@H](Cc1ccc(O)cc1)NC(=O)[C@H](CCCCN)NC(=O)[C@H](C)N)C(N)=O [A1] (I: H-AKYRYHLKPFK-NH2 / II: H-AKYRYHLKPF; amide I:11-II:C)
- IC50 (SARS-CoV-2 PLpro [1]; [4]): 3500 ± 100 nM
- inhibition at 10 µM (SARS-CoV-2 PLpro [1]; 70 nM enzyme): 97%
- SARS-CoV-2 % of inhibition at 100 µM (SARS-CoV-2): 4%
- Kd (SARS-CoV-2 PLpro [2]): 6000 ± 3000 nM

Compound: CC(C)C[C@H](NC(=O)[C@H](Cc1c[nH]cn1)NC(=O)[C@H](Cc1ccc(O)cc1)NC(=O)[C@H](CCCNC(=N)N)NC(=O)[C@H](Cc1ccc(O)cc1)NC(=O)[C@H](CCCCN)NC(=O)[C@@H](N)CCCCN)C(=O)N[C@@H](C)C(=O)N1CCC[C@H]1C(=O)N[C@@H](Cc1ccccc1)C(=O)NCCCC[C@H](NC(=O)[C@H](Cc1ccccc1)NC(=O)[C@@H]1CCCN1C(=O)[C@H](C)NC(=O)[C@H](CC(C)C)NC(=O)[C@H](Cc1c[nH]cn1)NC(=O)[C@H](Cc1ccc(O)cc1)NC(=O)[C@H](CCCNC(=N)N)NC(=O)[C@H](Cc1ccc(O)cc1)NC(=O)[C@H](CCCCN)NC(=O)[C@@H](N)CCCCN)C(N)=O [A8] (I: H-KKYRYHLAPFK-NH2 / II: H-KKYRYHLAPF; amide I:11-II:C)
- inhibition at 10 µM (SARS-CoV-2 PLpro [1]; 70 nM enzyme): 99%
- IC50 (SARS-CoV-2 PLpro [1]; [3]): 2400 nM

Compound: CC(C)C[C@H](NC(=O)[C@H](Cc1c[nH]cn1)NC(=O)[C@H](Cc1ccc(O)cc1)NC(=O)[C@H](CCCNC(=N)N)NC(=O)[C@H](C)NC(=O)[C@H](CCCCN)NC(=O)[C@@H](N)CCCCN)C(=O)N[C@@H](CCCCN)C(=O)N1CCC[C@H]1C(=O)N[C@@H](Cc1ccccc1)C(=O)NCCCC[C@H](NC(=O)[C@H](Cc1ccccc1)NC(=O)[C@@H]1CCCN1C(=O)[C@H](CCCCN)NC(=O)[C@H](CC(C)C)NC(=O)[C@H](Cc1c[nH]cn1)NC(=O)[C@H](Cc1ccc(O)cc1)NC(=O)[C@H](CCCNC(=N)N)NC(=O)[C@H](C)NC(=O)[C@H](CCCCN)NC(=O)[C@@H](N)CCCCN)C(N)=O [A3] (I: H-KKARYHLKPFK-NH2 / II: H-KKARYHLKPF; amide I:11-II:C)
- IC50 (SARS-CoV-2 PLpro [1]; [4]): 1000 ± 30 nM
- inhibition at 10 µM (SARS-CoV-2 PLpro [1]; 70 nM enzyme): 95%
- Kd (SARS-CoV-2 PLpro [2]): 6000 ± 4000 nM

Compound: CC(C)C[C@H](NC(=O)[C@H](Cc1c[nH]cn1)NC(=O)[C@H](Cc1ccc(O)cc1)NC(=O)[C@H](CCCNC(=N)N)NC(=O)[C@H](Cc1ccc(O)cc1)NC(=O)[C@H](CCCCN)NC(=O)[C@@H](N)CCCCN)C(=O)N[C@@H](CCCCN)C(=O)N1CCC[C@H]1C(=O)N[C@@H](C)C(=O)NCCCC[C@H](NC(=O)[C@H](C)NC(=O)[C@@H]1CCCN1C(=O)[C@H](CCCCN)NC(=O)[C@H](CC(C)C)NC(=O)[C@H](Cc1c[nH]cn1)NC(=O)[C@H](Cc1ccc(O)cc1)NC(=O)[C@H](CCCNC(=N)N)NC(=O)[C@H](Cc1ccc(O)cc1)NC(=O)[C@H](CCCCN)NC(=O)[C@@H](N)CCCCN)C(N)=O [A10] (I: H-KKYRYHLKPAK-NH2 / II: H-KKYRYHLKPA; amide I:11-II:C)
- IC50 (SARS-CoV-2 PLpro [1]; [4]): 2400 ± 200 nM
- inhibition at 10 µM (SARS-CoV-2 PLpro [1]; 70 nM enzyme): 98%
- SARS-CoV-2 % of inhibition at 100 µM (SARS-CoV-2): 7%

Reference: paper PMC8401042, “Non-Toxic Dimeric Peptides Derived from the Bothropstoxin-I Are Potent SARS-CoV-2 and Papain-like Protease Inhibitors” (Molecules, 2021)
